Results as given in US20230192705A1, “SHP2 INHIBITORS, COMPOSITIONS AND USES THEREOF” (Betta Pharmaceuticals Co., Ltd, priority 2020, published 2023).

Biological target: T1, SHP2 (Homo sapiens, UniProt Q06124)
T1 sequence (Q06124 1-593): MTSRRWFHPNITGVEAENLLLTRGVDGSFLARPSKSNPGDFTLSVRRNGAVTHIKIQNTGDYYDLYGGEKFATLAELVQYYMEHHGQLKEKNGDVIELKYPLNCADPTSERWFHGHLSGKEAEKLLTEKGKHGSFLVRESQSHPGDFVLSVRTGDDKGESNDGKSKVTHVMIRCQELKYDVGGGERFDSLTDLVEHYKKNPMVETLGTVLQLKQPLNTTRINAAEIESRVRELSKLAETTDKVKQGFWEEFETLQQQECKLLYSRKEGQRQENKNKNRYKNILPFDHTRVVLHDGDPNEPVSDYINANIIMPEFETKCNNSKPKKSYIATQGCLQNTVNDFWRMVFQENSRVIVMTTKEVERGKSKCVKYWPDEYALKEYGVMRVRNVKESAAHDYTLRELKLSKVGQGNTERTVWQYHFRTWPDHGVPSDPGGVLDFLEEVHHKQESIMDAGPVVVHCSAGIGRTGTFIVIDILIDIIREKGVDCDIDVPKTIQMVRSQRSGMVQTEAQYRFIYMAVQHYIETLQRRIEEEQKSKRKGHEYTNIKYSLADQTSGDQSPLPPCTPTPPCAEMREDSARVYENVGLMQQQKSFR
Test: SHP2 allosteric inhibitor enzyme activity assay (DiFMUP fluorescence)
Format: biochemical
Settings: class symbols
In short: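 SHP2 activated by 0.5 μM IRS1_pY1172(dPEG8)pY1222 peptide, 0.2 ng enzyme per well, 1 h at room temperature with compound (1 μM top, 3-fold series), then DiFMUP substrate 1 h. Buffer: 60 mM HEPES, 75 mM NaCl, 75 mM KCl, 0.05% BRIJ-35, 1 mM EDTA, 5 mM DTT. Fluorescence ex 340/em 450 nm; IC50 by variable-slope fit.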

IC50, ≤ 20 nM:
COc1ccc(C2(c3n[nH]c4nc(N5CCC6(CC5)Cc5ccccc5[C@H]6N)[nH]c(=O)c34)CC2)c(OC)c1 [Example 232, (S)-6-(1-amino-1,3-dihydrospiro[indene-2,4′-piperidin]-1′-yl)-3-(1-(2,4-dimethoxyphenyl)cyclopropyl)-1,5-dihydro-4H-pyrazolo[3,4-d]pyrimidin-4-one]
N[C@@H]1c2ccccc2CC12CCN(c1nc3[nH]nc(C4(c5ccc(Cl)cc5Cl)CC4)c3c(=O)[nH]1)CC2 [Example 235, (S)-6-(1-amino-1,3-dihydrospiro[indene-2,4′-piperidin]-1′-yl)-3-(1-(2,4-dichlorophenyl)cyclopropyl)-1,5-dihydro-4H-pyrazolo[3,4-d]pyrimidin-4-one]
N[C@@H]1c2ccccc2CC12CCN(c1nc3[nH]nc(C4(c5ccsc5)CC4)c3c(=O)[nH]1)CC2 [Example 236, (S)-6-(1-amino-1,3-dihydrospiro[indene-2,4′-piperidin]-1′-yl)-3-(1-(thiophen-3-yl)cyclopropyl)-l,5-dihydro-4H-pyrazolo[3,4-d]pyrimidin-4-one]
N#Cc1nnc(C2(c3n[nH]c4nc(N5CCC6(CC5)Cc5ccccc5[C@H]6N)[nH]c(=O)c34)CC2)s1 [Example 238, (S)-5-(1-(6-(1-amino-1,3-dihydrospiro[indene-2,4′-piperidin]-1′-yl)-4-oxo-4,5-dihydro-1H-pyrazolo[3,4-d]pyrimidin-3-yl)cyclopropyl)-1,3,4-thiadiazole-2-carbonitrile]
N[C@@H]1c2ccccc2CC12CCN(c1nc3[nH]nc(C4(c5nncs5)CC4)c3c(=O)[nH]1)CC2 [Example 239, (S)-3-(1-(1,3,4-thiadiazol-2-yl)cyclopropyl)-6-(1-amino-1,3-dihydrospiro[indene-2,4′-piperidin]-1′-yl)-1,5-dihydro-4H-pyrazolo[3,4-d]pyrimidin-4-one]
Cc1snnc1C1(c2n[nH]c3nc(N4CCC5(CC4)Cc4ccccc4[C@H]5N)[nH]c(=O)c23)CC1 [Example 241, (S)-6-(1-amino-1,3-dihydrospiro[indene-2,4′-piperidin]-1′-yl)-3-(1-(5-methyl-1,2,3-thiadiazol-4-yl)cyclopropyl)-1,5-dihydro-4H-pyrazolo[3,4-d]pyrimidin-4-one]
N[C@@H]1c2ccccc2CC12CCN(c1nc3[nH]nc(C4(c5ccc[s+]5[O-])CC4)c3c(=O)[nH]1)CC2 (stereo partly drawn) [Example 242, 6-((S)-1-amino-1,3-dihydrospiro[indene-2,4′-piperidin]-1′-yl)-3-(1-(1-oxidothiophen-2-yl)cyclopropyl)-1,5-dihydro-4H-pyrazolo[3,4-d]pyrimidin-4-one]
N[C@@H]1c2ccccc2CC12CCN(c1nc3[nH]nc(C4(c5ncco5)CC4)c3c(=O)[nH]1)CC2 [Example 243, (S)-6-(1-amino-1,3-dihydrospiro[indene-2,4′-piperidin]-1′-yl)-3-(1-(oxazol-2-yl)cyclopropyl)-1,5-dihydro-4H-pyrazolo[3,4-d]pyrimidin-4-one]
Cc1cnc(C2(c3n[nH]c4nc(N5CCC6(CC5)Cc5ccccc5[C@H]6N)[nH]c(=O)c34)CC2)o1 [Example 244, (S)-6-(1-amino-1,3-dihydrospiro[indene-2,4′-piperidin]-1′-yl)-3-(1-(5-methyloxazol-2-yl)cyclopropyl)-1,5-dihydro-4H-pyrazolo[3,4-d]pyrimidin-4-one]
N[C@@H]1c2ccccc2CC12CCN(c1nc3[nH]nc(C4(c5ncccn5)CC4)c3c(=O)[nH]1)CC2 [Example 245, (S)-6-(1-amino-1,3-dihydrospiro[indene-2,4′-piperidin]-1′-yl)-3-(1-(pyrimidin-2-yl)cyclopropyl)-1,5-dihydro-4H-pyrazolo[3,4-d]pyrimidin-4-one]
N[C@@H]1c2ccccc2CC12CCN(c1nc3[nH]nc(C4(c5nn[nH]n5)CC4)c3c(=O)[nH]1)CC2 [Example 246, (S)-3-(1-(2H-tetrazol-5-yl)cyclopropyl)-6-(1-amino-1,3-dihydrospiro[indene-2,4′-piperidin]-1′-yl)-1,5-dihydro-4H-pyrazolo[3,4-d]pyrimidin-4-one]
